SMILES strings stand for the structures. Bounds are passed on as bounds.

One assay relates to H3K36me3 in A549 cells. The assay is described as follows: In-Cell Western (ICW) assay of SETD2 inhibitors (A549 assay). Particulars: A549 cells; read-out: SETD2 A549. Format: cell-based, human. The method, boiled down: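 H3K36me3 In-Cell Western: cells exposed to compound for 3 days at 4,000 cells/well, 37° C. DRAQ5 (1:1000) marked cell number, with 700/800-channel Licor read-out.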
In the case of `Cc1ccc(F)c2cc(C(=O)NC3CCCC(N4CCCN(C)C(=O)C4)C3)[nH]c12` (centres unmarked) [compound 387], the IC50 was more than 2000 nM.

With `Cc1cc(C(=O)NC2CCNC2)cnc1C(NC(=O)c1cc2cccc(C)c2[nH]1)C1CC1` (centres unmarked) [compound 510], the IC50 worked out at 15500 nM.

With `Cc1ccc(F)c2cc(C(=O)Nc3cccc([C@@H]4CC[C@@H](N(C)C)C4)c3)[nH]c12` [compound 217], the IC50 is 500 nM.

Consider `Cc1ccc(F)c2cc(C(=O)NC3CCCC(N4CCC(N(C)C(=O)CO)C4)C3)[nH]c12` (centres unmarked) [compound 984], for which the IC50 is more than 2000 nM.

As for `Cc1ccc(N2CCN(C)CC2)cc1NC(=O)c1cc2c(F)ccc(C)c2[nH]1` [compound 407], the IC50 was found to be 2800 nM.

For `Cc1ccc(F)c2cc(C(=O)Nc3cccc(N4CC5CCC(C4)C5N(C)C)c3)[nH]c12` (centres unmarked) [compound 436], the IC50 is 4700 nM.

For `Cc1ccc(F)c2cc(C(=O)Nc3cccc(-c4nnc(N)[nH]4)c3)[nH]c12` [compound 524], the IC50 came to 20900 nM.

`Cc1ccc(F)c2cc(C(=O)NC3CCCC(c4nnc(CN(C)C)o4)C3)[nH]c12` (centres unmarked) [compound 955]: the IC50 is 800 nM.

Turning to `Cc1ccc(F)c2cc(C(=O)NC3CCCC(c4cncnc4)C3)[nH]c12` (centres unmarked) [compound 380], the IC50 is more than 2000 nM.

As to `Cc1cc(C(=O)O)cnc1C(NC(=O)c1cc2c(F)ccc(C)c2[nH]1)C1CC1` (centres unmarked) [compound 544], the IC50 is more than 25000 nM.

`Cc1ccc(F)c2cc(C(=O)Nc3cc(F)cc([C@@H]4CCN5C(=O)CC[C@H]5C4)c3)[nH]c12` [compound 96]: the IC50 is 200 nM.

For the molecule `COc1ccc(C)c2[nH]c(C(=O)NC(CCC(=O)N3CCOCC3)c3ncccc3C)cc12` (centres unmarked) [compound 514], the IC50 is 18300 nM.

On to `COC(=O)N1CCC2(CC1)CN(c1cccc(NC(=O)c3cc4c(F)ccc(C)c4[nH]3)c1)C2` [compound 112], for which the IC50 stood at 200 nM.

Consider `Cc1cc(OCC(O)CNCc2cccnc2)cnc1C(NC(=O)c1cc2cccc(C)c2[nH]1)C1CC1` (centres unmarked) [compound 430], for which the IC50 stood at 4400 nM.

In the case of `CNC(=O)CN1CCN(C2CCC[C@@H](NC(=O)c3cc4c(F)ccc(C)c4[nH]3)C2)CC1` (some centres unmarked) [compound 858], the IC50 is more than 2000 nM.

For the molecule `Cc1ccc(F)c2cc(C(=O)NC3CCCC(N4CCN(C5CC5)C(=O)C4)C3)[nH]c12` (centres unmarked) [compound 977], the IC50 is 200 nM.

`Cc1ccc(F)c2cc(C(=O)Nc3cccc(-c4cnn(CCO)c4)c3)[nH]c12` [compound 219]: the IC50 stood at 500 nM.

In the case of `Cc1ccc(F)c2cc(C(=O)NC3CCCC(N4CCCN(S(C)(=O)=O)CC4)C3)[nH]c12` (centres unmarked) [compound 982], the IC50 was more than 2000 nM.

`COC(=O)N1CCN(c2cccc(NC(=O)c3cc4c(F)ccc(C)c4[nH]3)c2)CC1` [compound 121]: the IC50 was 300 nM.

`Cc1cccnc1C(CCC(=O)N1CCC(O)CC1)NC(=O)c1cc2cccc(C)c2[nH]1` (centres unmarked) [compound 434]: the IC50 amounted to 4600 nM.

With `CC(=O)N1CCN(C2COCC(NC(=O)c3cc4c(F)ccc(C)c4[nH]3)C2)CC1` (centres unmarked) [compound 986], the IC50 was determined as 200 nM.

On to `Cc1cccnc1C(CCCC(=O)N1CCOCC1)NC(=O)c1cc2cccc(C)c2[nH]1` (centres unmarked) [compound 494], for which the IC50 turned out to be 13200 nM.

On to `Cc1ccc(F)c2cc(C(=O)Nc3cccc(N4CCC5(CCCN5C)CC4)c3)[nH]c12` [compound 212], for which the IC50 came out at 400 nM.

Take `CC(=O)N1CCN(C2CCC(NC(=O)c3cc4c(F)ccc(C)c4[nH]3)C2)CC1` (centres unmarked) [compound 376]: the IC50 was more than 2000 nM.

For `CC(=O)N1CCN(C2CC(NC(=O)c3cc4c(F)ccc(C)c4[nH]3)CN(C)C2)CC1` (centres unmarked) [compound 1109], the IC50 was more than 2000 nM.

A further assay addresses T1, SETD2(1434-1711) (Homo sapiens, UniProt Q9BYW2).
T1 construct: SETD2 (1434-1711) Assay; catalogue N/A
T1 sequence (Q9BYW2 1434-1711): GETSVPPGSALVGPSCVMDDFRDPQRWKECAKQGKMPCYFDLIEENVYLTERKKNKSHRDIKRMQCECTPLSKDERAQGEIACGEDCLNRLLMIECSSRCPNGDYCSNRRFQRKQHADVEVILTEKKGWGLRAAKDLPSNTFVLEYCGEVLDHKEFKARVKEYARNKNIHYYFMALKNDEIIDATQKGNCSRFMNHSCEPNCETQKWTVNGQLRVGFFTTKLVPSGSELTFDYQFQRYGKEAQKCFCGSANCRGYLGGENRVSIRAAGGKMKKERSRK
Put plainly: SETD2 (1434-1711) assay. Format: biochemical. The settings on record: read-out: SETD2 (1434-1711).
For `Cc1ccc(F)c2cc(C(=O)NC3CCCC(N4CCCN(C)C(=O)C4)C3)[nH]c12` (centres unmarked) [compound 387], the IC50 was more than 10000 nM.

Regarding `Cc1cc(C(=O)NC2CCNC2)cnc1C(NC(=O)c1cc2cccc(C)c2[nH]1)C1CC1` (centres unmarked) [compound 510], the IC50 amounted to 600 nM.

Regarding `Cc1ccc(F)c2cc(C(=O)Nc3cccc([C@@H]4CC[C@@H](N(C)C)C4)c3)[nH]c12` [compound 217], the IC50 came out at 10 nM.

In the case of `Cc1ccc(F)c2cc(C(=O)NC3CCCC(N4CCC(N(C)C(=O)CO)C4)C3)[nH]c12` (centres unmarked) [compound 984], the IC50 came to 5300 nM.

For `Cc1ccc(N2CCN(C)CC2)cc1NC(=O)c1cc2c(F)ccc(C)c2[nH]1` [compound 407], the IC50 is 300 nM.

As to `Cc1ccc(F)c2cc(C(=O)Nc3cccc(N4CC5CCC(C4)C5N(C)C)c3)[nH]c12` (centres unmarked) [compound 436], the IC50 turned out to be 300 nM.

With `Cc1ccc(F)c2cc(C(=O)Nc3cccc(-c4nnc(N)[nH]4)c3)[nH]c12` [compound 524], the IC50 was determined as 1500 nM.

For the molecule `Cc1ccc(F)c2cc(C(=O)NC3CCCC(c4nnc(CN(C)C)o4)C3)[nH]c12` (centres unmarked) [compound 955], the IC50 was determined as 200 nM.

As for `Cc1ccc(F)c2cc(C(=O)NC3CCCC(c4cncnc4)C3)[nH]c12` (centres unmarked) [compound 380], the IC50 is more than 10000 nM.

Take `Cc1cc(C(=O)O)cnc1C(NC(=O)c1cc2c(F)ccc(C)c2[nH]1)C1CC1` (centres unmarked) [compound 544]: the IC50 was 2900 nM.

Take `Cc1ccc(F)c2cc(C(=O)Nc3cc(F)cc([C@@H]4CCN5C(=O)CC[C@H]5C4)c3)[nH]c12` [compound 96]: the IC50 is 40 nM.

As to `COc1ccc(C)c2[nH]c(C(=O)NC(CCC(=O)N3CCOCC3)c3ncccc3C)cc12` (centres unmarked) [compound 514], the IC50 came to 24900 nM.

As for `COC(=O)N1CCC2(CC1)CN(c1cccc(NC(=O)c3cc4c(F)ccc(C)c4[nH]3)c1)C2` [compound 112], the IC50 came out at 30 nM.

Turning to `Cc1cc(OCC(O)CNCc2cccnc2)cnc1C(NC(=O)c1cc2cccc(C)c2[nH]1)C1CC1` (centres unmarked) [compound 430], the IC50 was found to be 600 nM.

For `CNC(=O)CN1CCN(C2CCC[C@@H](NC(=O)c3cc4c(F)ccc(C)c4[nH]3)C2)CC1` (some centres unmarked) [compound 858], the IC50 is 400 nM.

Take `Cc1ccc(F)c2cc(C(=O)NC3CCCC(N4CCN(C5CC5)C(=O)C4)C3)[nH]c12` (centres unmarked) [compound 977]: the IC50 was 20 nM.

On to `Cc1ccc(F)c2cc(C(=O)Nc3cccc(-c4cnn(CCO)c4)c3)[nH]c12` [compound 219], for which the IC50 stood at 60 nM.

Take `Cc1ccc(F)c2cc(C(=O)NC3CCCC(N4CCCN(S(C)(=O)=O)CC4)C3)[nH]c12` (centres unmarked) [compound 982]: the IC50 came out at 1000 nM.

As to `COC(=O)N1CCN(c2cccc(NC(=O)c3cc4c(F)ccc(C)c4[nH]3)c2)CC1` [compound 121], the IC50 was found to be 50 nM.

Turning to `Cc1cccnc1C(CCC(=O)N1CCC(O)CC1)NC(=O)c1cc2cccc(C)c2[nH]1` (centres unmarked) [compound 434], the IC50 was 4300 nM.

With `CC(=O)N1CCN(C2COCC(NC(=O)c3cc4c(F)ccc(C)c4[nH]3)C2)CC1` (centres unmarked) [compound 986], the IC50 was 60 nM.

For the molecule `Cc1cccnc1C(CCCC(=O)N1CCOCC1)NC(=O)c1cc2cccc(C)c2[nH]1` (centres unmarked) [compound 494], the IC50 amounted to 6000 nM.

Turning to `Cc1ccc(F)c2cc(C(=O)Nc3cccc(N4CCC5(CCCN5C)CC4)c3)[nH]c12` [compound 212], the IC50 was determined as 20 nM.

Regarding `CC(=O)N1CCN(C2CCC(NC(=O)c3cc4c(F)ccc(C)c4[nH]3)C2)CC1` (centres unmarked) [compound 376], the IC50 was more than 10000 nM.

For `CC(=O)N1CCN(C2CC(NC(=O)c3cc4c(F)ccc(C)c4[nH]3)CN(C)C2)CC1` (centres unmarked) [compound 1109], the IC50 was more than 10000 nM.
